Tests used:
[1] = test system: latently HIV-1 infected cell line (U1); experiment: Activation of latent HIV from U1 cells (p24 ELISA); assay type: cell-based, HIV-1 LAI strain; details: 20 hr culture
From the text: A latently HIV-1 infected cell line (U1), derived from the promonocytic cell line U937 after infection with HIV-1 LAI strain, was used in these experiments. In the absence of activation, no or little virus (measured as p24 production) is produced by the U1 cell line. Phorbol esters are known to activate virus production from these cells (Tobiume et al., 1998) and so TPA/PMA was used as a positive control in these experiments.
Supernatants were collected and viral replication monitored by determination of the amounts of HIV p24 gag protein in the culture supernatants by ELISA, using a NEN Life Science HIV-1 p24 ELISA kit. p24 values were calculated from OD values using a standard curve.

[2] = test system: Burkitt's lymphoma cell lines (MutuI and BL74); experiment: EBV activation, VCA on western blots, Burkitt's lymphoma cell lines; assay type: cell-based
Experimental: Initially the effect of PEP003 and PEP004 was tested on the B95-8 cell line (an EBV positive marmoset cell line that is used worldwide as one of the best EBV producers). This cell line was treated with each of these compounds (at different concentrations) for 3 days and 7 days, respectively, and activation of EBV virus production was measured by the appearance of a viral capsid antigen (VCA) on western blots. Also, as a comparison, EBV was activated in this cell line with TPA.
To ensure that equal amounts of each sample were analyzed, the gels were stained with Coomassie blue and the loadings were adjusted to make them equal. […] Next the PEP003 and PEP004 were assayed on two Burkitt's lymphoma cell lines and an LCL. This time only concentrations of 10^−5 and 10^−7 were used.

[3] = test system: peripheral blood mononuclear cells (PBMCs); experiment: Phagocytosis with fluorescent beads; assay type: cell-based; details: whole heparinized blood, 30 min at 37° C.
Experimental: Phagocytosis by peripheral blood mononuclear cells (PBMCs) was assayed (Steinkamp et al., 1982) using 1 μm Fluoresbrite™ yellow-green fluorescent latex spheres (Polysciences, Inc., Warrington, Pa.). A sample of whole, heparinized blood was treated with drug and 5×10E7 fluorescent latex beads in 10 μL of PBS added per mL of suspension. Cells were incubated and maintained in suspension for 30 min by means of a shaker platform at 37° C. The stimulated and non-stimulated samples were then lysed to isolate PBMCs. The PBMCs were run on the flow cytometer measuring FITC (excitation at 488 nm, emission at 525±20 nm), gated for fluorescence (phagocytosed spheres) and light scatter (cell size).

latent HIV in monocytes = details: Tobiume et al., 1998; cited from earlier work
rat brain PKC = experiment: PKC kinase activity, PepTag Non-Radioactive Protein Kinase Kit; assay type: biochemical; details: FIG. 1; TPA various dilutions (lanes 3, 4 and 5); ether extract at final dilution of 1 in 5 relative to the sap; crude sap and aqueous layer diluted 1/25
Experimental: The kinase activity of rat brain PKC (Promega) was determined using the Peptag™ Non-Radioactive Protein Kinase Kit (Promega). Using agarose gel electrophoresis the technique visualises the opposing electrostatic charge of a fluorescently labeled peptide ([sequence]) compared to the phosphorylated version of the same peptide.
The reaction mixture was separated by gel electrophoresis, showing migration of the unreacted substrate (a) to the anode (top), and the product (b), which is more negatively charged because of phosphorylation by PKC, moving towards the cathode (bottom).

CMV promoter = details: Christenson et al., 1999; cited from earlier work
PKCα = biological target: T1, PKCα (Homo sapiens, UniProt P17252); assay type: cell-based; details: HeLa, one hour
T1 construct: host or cells: HeLa cells
Experimental: (§1) Five EGFP-PKC isoforms (Clontech) were available for this experiment, enabling the screening of the three predominant PKC families (i.e. classical, novel and a typical PKCs). The members of the various PKC families are α, β, and γ (classical), θ (novel) and ζ (atypical).
(§2) HeLa cells were plated out in a 24-well plate containing coverslips and transfected with PKC isoforms fused to EGFP, using a commercially available effectine-transfection kit (QIAGEN, Pty. Ltd.). Cells were exposed to the transfection reagents for 16-24 hr. Subsequently, transfected cells were treated for one hour with TPA (100 ng/mL), bryostatin-1 (5 pg/mL), PEP003 (2.25 μg/mL; 5 μM) or PEP005 ([…]) 1.5 μM). Following treatment, cells were fixed on coverslips and mounted on glass slides. The slides were subsequently examined visually by fluorescence microscopy, photographed, and over 150 cells were counted/treatment/PKC isoform. Counted cells were classified according to the localisation of the PKC-EGFP fluorescence as either cytoplasmic or plasma membrane using ImagePro™ 4.1 (FIG. 5). […] The number of these cells was also counted.

PKCζ = biological target: T2, PKCζ (Homo sapiens, UniProt Q05513); experiment: EGFP-PKC isoform translocation in HeLa cells; assay type: cell-based; details: one hour, TPA 100 ng/mL, bryostatin-1 5 pg/mL, PEP003 2.25 μg/mL (5 μM), PEP005 670 μg/mL (1.5 μM)
T2 construct: host or cells: HeLa cells
T2 sequence (Q05513 1-592): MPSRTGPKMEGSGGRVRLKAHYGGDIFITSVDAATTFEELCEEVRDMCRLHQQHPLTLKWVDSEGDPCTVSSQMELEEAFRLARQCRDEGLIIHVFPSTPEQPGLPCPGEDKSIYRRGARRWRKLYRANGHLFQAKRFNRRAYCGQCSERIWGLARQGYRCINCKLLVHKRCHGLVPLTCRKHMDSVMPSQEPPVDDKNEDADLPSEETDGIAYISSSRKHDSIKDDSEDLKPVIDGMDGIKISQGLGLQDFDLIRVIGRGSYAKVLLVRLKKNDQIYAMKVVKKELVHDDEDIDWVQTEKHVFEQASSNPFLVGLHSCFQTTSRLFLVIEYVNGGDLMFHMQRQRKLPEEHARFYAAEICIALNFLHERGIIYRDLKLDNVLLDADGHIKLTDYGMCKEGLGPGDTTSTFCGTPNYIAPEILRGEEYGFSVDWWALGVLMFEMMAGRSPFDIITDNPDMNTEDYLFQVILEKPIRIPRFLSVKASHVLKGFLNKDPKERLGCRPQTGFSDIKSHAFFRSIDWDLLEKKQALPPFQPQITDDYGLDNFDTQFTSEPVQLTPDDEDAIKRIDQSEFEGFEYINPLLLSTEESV
Experimental: as §1
as §2, with “counted. Results are presented as an average and standard deviation of percentages of cells (Table 1).” for “counted.”

PKCθ = biological target: T3, PKCθ (Homo sapiens, UniProt Q04759); experiment: EGFP-PKC isoform translocation in HeLa cells; assay type: cell-based; details: one hour, TPA 100 ng/mL, bryostatin-1 5 pg/mL, PEP003 2.25 μg/mL (5 μM)
T3 construct: host or cells: HeLa cells
T3 sequence (Q04759 whole entry, canonical isoform): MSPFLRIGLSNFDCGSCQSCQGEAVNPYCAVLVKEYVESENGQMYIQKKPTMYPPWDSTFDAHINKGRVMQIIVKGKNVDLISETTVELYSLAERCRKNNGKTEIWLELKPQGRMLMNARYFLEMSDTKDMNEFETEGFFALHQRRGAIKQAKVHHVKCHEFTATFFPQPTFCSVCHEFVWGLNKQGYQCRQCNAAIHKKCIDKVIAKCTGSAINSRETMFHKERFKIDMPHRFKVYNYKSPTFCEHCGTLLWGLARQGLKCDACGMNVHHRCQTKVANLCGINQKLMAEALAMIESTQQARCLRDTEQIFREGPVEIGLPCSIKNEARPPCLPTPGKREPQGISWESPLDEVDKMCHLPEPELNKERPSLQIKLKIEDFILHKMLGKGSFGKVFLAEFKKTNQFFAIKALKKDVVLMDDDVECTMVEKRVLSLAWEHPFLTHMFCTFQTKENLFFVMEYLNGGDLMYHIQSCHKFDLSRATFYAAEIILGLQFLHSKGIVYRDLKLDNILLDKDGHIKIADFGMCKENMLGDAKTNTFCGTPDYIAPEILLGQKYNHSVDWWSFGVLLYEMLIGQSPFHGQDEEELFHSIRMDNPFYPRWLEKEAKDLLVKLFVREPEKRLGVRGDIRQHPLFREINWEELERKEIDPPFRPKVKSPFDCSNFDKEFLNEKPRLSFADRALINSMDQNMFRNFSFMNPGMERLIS
Experimental: as §1
as §2, with “counted. Results are presented as an average and standard deviation of percentages of cells (Table 1).” for “counted.”

PKCβ = biological target: T4, PKCβ (Homo sapiens, UniProt P05771); experiment: EGFP-PKC isoform translocation in HeLa cells; assay type: cell-based; details: one hour
T4 construct: host or cells: HeLa cells
T4 sequence (P05771 whole entry, species assumed, canonical isoform): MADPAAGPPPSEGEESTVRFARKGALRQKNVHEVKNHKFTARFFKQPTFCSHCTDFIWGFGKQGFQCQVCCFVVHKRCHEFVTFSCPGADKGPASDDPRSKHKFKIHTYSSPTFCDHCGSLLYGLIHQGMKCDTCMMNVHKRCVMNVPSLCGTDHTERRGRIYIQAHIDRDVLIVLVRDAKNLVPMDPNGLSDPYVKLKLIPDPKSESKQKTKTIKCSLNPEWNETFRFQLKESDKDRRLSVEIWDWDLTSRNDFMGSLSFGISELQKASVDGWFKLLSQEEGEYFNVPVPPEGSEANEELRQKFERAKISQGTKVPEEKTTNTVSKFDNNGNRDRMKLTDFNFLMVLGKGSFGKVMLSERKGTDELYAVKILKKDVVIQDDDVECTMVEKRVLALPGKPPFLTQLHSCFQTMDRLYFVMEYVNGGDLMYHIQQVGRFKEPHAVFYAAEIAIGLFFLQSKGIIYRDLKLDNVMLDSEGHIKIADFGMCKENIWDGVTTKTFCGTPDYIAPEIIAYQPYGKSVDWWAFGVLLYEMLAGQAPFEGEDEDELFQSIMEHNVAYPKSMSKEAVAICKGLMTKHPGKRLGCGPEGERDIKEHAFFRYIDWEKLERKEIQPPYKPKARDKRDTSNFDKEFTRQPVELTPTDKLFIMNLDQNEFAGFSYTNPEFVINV
Experimental: as §1
as §2, with “counted. Results are presented as an average and standard deviation of percentages of cells (Table 1).” for “counted.”

PKCγ = biological target: T5, PKCγ (Homo sapiens, UniProt P05129); experiment: EGFP-PKC isoform translocation in HeLa cells; assay type: cell-based; details: one hour
T5 construct: host or cells: HeLa cells
Experimental: as §1
as §2, with “counted. Results are presented as an average and standard deviation of percentages of cells (Table 1).” for “counted.”

[4] = test system: neonatal foreskin fibroblasts; experiment: Killing by untreated leukocytes of drug-pretreated target cells; assay type: cell-based, human; details: target cells treated with 60 ng/mL for 20 hr and washed before leukocytes; 100:1 ratio of effector:target cells
Experimental: (§3) Leukocytes obtained by lysis of human peripheral blood were added to 5000 MM96L human melanoma cells or 7000 neonatal foreskin fibroblasts per microtitre well at effector: target ratios of 1000, 100 and 10:1. The target cells had been treated with 60 ng/mL PEP008 for 20 hr beforehand, and washed and the medium replaced before the leukocytes were added. After 48 hr incubation with the leukocytes the cultures were washed and labelled with [3H]-thymidine for 2 hr. […] Untreated leukocytes had no effect on cell survival.

[5] = test system: neonatal foreskin fibroblasts; experiment: Leukocyte killing with drug present, [3H]-thymidine labelling; assay type: cell-based, human; details: 60 ng/mL with leukocytes, 48 hr; 100:1 ratio of effector:target cells
Experimental: (§4) Leukocytes obtained by lysis of human peripheral blood were added to 5000 MM96L human melanoma cells or 7000 neonatal foreskin fibroblasts per microtitre well at effector: target ratios of 1000, 100 and 10:1. Ing9 (60 ng/mL) was added and after 48 hr incubation the cultures were washed and labelled with [3H]-thymidine for 2 hr. […] Untreated leukocytes had no effect on cell survival.

[6] = test system: MM96L human melanoma cells; experiment: Killing by untreated leukocytes of drug-pretreated target cells; assay type: cell-based; details: target cells treated with 60 ng/mL for 20 hr and washed before leukocytes; 100:1 ratio of effector:target cells
Experimental: as §3

[7] = test system: MM96L human melanoma cells; experiment: Leukocyte killing with drug present, [3H]-thymidine labelling; assay type: cell-based; details: 60 ng/mL with leukocytes, 48 hr; 100:1 ratio of effector:target cells
Experimental: as §4

[8] = TPA 100 ng/mL, bryostatin-1 5 pg/mL, PEP003 2.25 μg/mL (5 μM), PEP005 670 μg/mL (1.5 μM)

## CCCCCCCCCCCCCC(=O)O[C@@H]1[C@@H](C)[C@@]2(O)[C@@H](C=C(CO)C[C@]3(O)C(=O)C(C)=C[C@@H]23)[C@@H]2C(C)(C)[C@]12OC(C)=O [TPA]
[1]
  activation of HIV from U1 cells (p24 production): activated HIV from U1 cells
[2]
  induction of VCA in MutuI cells: did not
[3]
  phagocytosis of fluorescent latex spheres in PBMCs: stimulate phagocytosis
Latent HIV in monocytes
  activation of latent HIV in monocytes: activate latent HIV in monocytes
Rat brain PKC
  activation of PKC: showed activation of PKC
CMV promoter
  increase of CMV promoter transcriptional activity: increase this activity
PKCα
  number of PKCα transfected cells displaying Golgi-like fluorescence: increase in the number of cells displaying Golgi-like fluorescence
PKCα; TPA 100 ng/mL, bryostatin-1 5 pg/mL, PEP003 2.25 μg/mL (5 μM), PEP005 (1.5 μM)
  PKCα translocation from the cytoplasm to the plasma membrane: translocated from the cytoplasm to the plasma membrane
PKCζ
  PKCζ translocation: fail to induce translocation of PKCζ
PKCθ
  PKCθ translocation: translocated
PKCβ
  number of PKCβ transfected cells with Golgi-like fluorescence: increase in Golgi-like fluorescence
PKCβ; [8]
  PKCβ translocation from the cytoplasm to the plasma membrane: translocated from the cytoplasm to the plasma membrane
PKCγ
  number of PKCγ transfected cells displaying Golgi-like fluorescence: increase in the number of cells displaying Golgi-like fluorescence
PKCγ; [8]
  PKCγ translocation from the cytoplasm to the plasma membrane: translocated from the cytoplasm to the plasma membrane

## C/C=C(/C)C(=O)O[C@H]1C(C)=C[C@]23C(=O)[C@@H](C=C(COC(C)=O)[C@@H](O)[C@]12O)[C@H]1[C@@H](C[C@H]3C)C1(C)C [PEP008, 20-O-acetyl-ingenol-3-angelate]
[4]
  survival of normal fibroblasts: 100%
[5]
  survival of normal fibroblasts: 100%
[6]
  survival of melanoma cells: 12%
[3]
  phagocytosis of fluorescent latex spheres in PBMCs: stimulate phagocytosis
[7]
  survival of melanoma cells: 9%
